Laboratory results from US12479877B2, “Methods for purifying steviol glycosides and uses of the same” (PureCircle Sdn. Bhd., priority 2010, dated 2025).
Entries after “also recorded” stand apart in the source; their conditions may differ.

How the values were obtained:
Type in all cases: in vivo, human
panelists [1] = test: Sensory properties in acidified water (pH 3.0) at 500 mg/L, 20 panelists; conditions: 500 ppm, acidified water pH 3.0, 20 panelists
Method: The sensory properties of Reb X were evaluated in acidified water (pH 3.0 by phosphoric acid) at 500 mg/L concentration by 20 panelists.

one experienced panelist = test: Taste evaluation of Reb X against Reb A and Reb D, multi-sip and swallow taste method; conditions: for Taste Properties: 500 ppm in citric buffer (pH 3.22), room temperature
Method: The taste properties of a sample of Reb X were studied against Rebaudioside A (Reb A) and Rebaudioside D (Rb D) samples. Rb A was obtained from Cargill (lot #1040) and Reb-D was obtained from PureCircle (lot #11/3/08).
The samples were prepared at 500 ppm for sweetness evaluation by adding moisture compensated mass into a 100 mL sample of carbon-treated water and citric buffer solutions.
Citric buffer was prepared by mixing 1.171 g/L citric acid, 0.275 g/L sodium citrate and 0.185 g/L sodium benzoate with carbon-treated water, with a final pH of 3.22. The mixtures were moderately stirred at room temperature. The Reb X sample was then evaluated against the two control Reb A and Reb D samples in water and citric buffer at room temperature (RT) and at 4° C. in an ice bath by one experienced panelist for any tasting quality determinations using the controlled, multi-sip and swallow taste method shown below:
1. Take first sip (˜1.8 mL) of control and swallow. Wait for 15-25 sec, then take second sip of control and wait for 15-25 sec.
2. Take first sip of the experimental sample, wait for 15-25 sec, then take second sip. Compare to second sip of control.
3. Repeat steps #1 and #2 for the third and fourth sips of the control and experimental samples to confirm the initial finding.
The taste evaluation results of the Reb X samples against the control Reb A and Reb D samples at 500 ppm in citric buffer (CB) at 4° C. and RT are described in Table 4.

panelists [2] = test: Sensory properties in acidified water (pH 3.0) at 500 mg/L, 20 panelists; conditions: 10,000 ppm, acidified water pH 3.0, 20 panelists

Structure (SMILES)	Astringent taste: Number of panelists detected the attribute (panelists [1])	Bitter taste: Number of panelists detected the attribute (panelists [1])	Licorice taste: Number of panelists detected the attribute (panelists [1])	Overall evaluation: Satisfactory (number of panelists of 20) (panelists [1])	Quality of sweet taste: Bitter aftertaste (number of panelists of 20) (panelists [1])	Sweet Aftertaste: Number of panelists detected the attribute (panelists [1])	Taste Properties (one experienced panelist)	Astringency, sweetness intense (depth) and bitterness notes (one experienced panelist; 500 ppm, citrate buffer system, compared with Reb A)	Astringent taste: Number of panelists detected the attribute (panelists [2])	Bitter taste: Number of panelists detected the attribute (panelists [2])	Licorice taste: Number of panelists detected the attribute (panelists [2])	Overall evaluation: Satisfactory (number of panelists of 20) (panelists [2])	Quality of sweet taste: Clean (number of panelists of 20) (panelists [2])	Sweet Aftertaste: Number of panelists detected the attribute (panelists [2])
C=C1C[C@@]23CC[C@H]4[C@@](C)(CCC[C@@]4(C)C(=O)O[C@@H]4O[C@H](CO)[C@@H](O)[C@H](O)[C@H]4O)[C@@H]2CC[C@]1(O[C@@H]1O[C@H](CO)[C@@H](O)[C@H](O[C@@H]2O[C@H](CO)[C@@H](O)[C@H](O)[C@H]2O)[C@H]1O[C@@H]1O[C@H](CO)[C@@H](O)[C@H](O)[C@H]1O)C3 [Reb A, Rebaudioside A]	20	20	20	(1 of 20)	(20 of 20)	20	Delayed sweetness onset, significant lingering sweet aftertaste,; also recorded: licorice and bitter off-notes	–	–	–	–	–	–	–
C=C1C[C@@]23CC[C@H]4[C@@](C)(CCC[C@@]4(C)C(=O)O[C@@H]4O[C@H](CO)[C@@H](O)[C@H](O)[C@H]4O[C@@H]4O[C@H](CO)[C@@H](O)[C@H](O)[C@H]4O)[C@@H]2CC[C@]1(O[C@@H]1O[C@H](CO)[C@@H](O)[C@H](O[C@@H]2O[C@H](CO)[C@@H](O)[C@H](O)[C@H]2O)[C@H]1O[C@@H]1O[C@H](CO)[C@@H](O)[C@H](O)[C@H]1O)C3 [Reb D, Rebaudioside D]	3	3	2	(11 of 20)	–	5	Delayed sweetness onset, less sweetness linger as compared to Reb; also recorded: A, no bitter off-notes	did not have the astringency or sweetness intense (depth) and bitterness notes compared to that of the Reb A	–	–	–	–	–	–
C=C1C[C@@]23CC[C@H]4[C@@](C)(CCC[C@@]4(C)C(=O)O[C@@H]4O[C@H](CO)[C@@H](O)[C@H](O)[C@H]4O)[C@@H]2CC[C@]1(O[C@@H]1O[C@H](CO)[C@@H](O)[C@H](O)[C@H]1O[C@@H]1O[C@H](CO)[C@@H](O)[C@H](O)[C@H]1O)C3 [Stevioside]	20	20	20	(0 of 20)	(20 of 20)	20	–	–	–	–	–	–	–	–
OC[C@H]1O[C@@](CO)(O[C@H]2O[C@H](CO)[C@@H](O)[C@H](O)[C@H]2O)[C@@H](O)[C@@H]1O [Sucrose]	–	–	–	–	–	–	–	–	0	0	0	(20 of 20)	Clean (20	0
